Test results: patent US20260138959A1, “QUINAZOLINE DERIVATIVE COMPOUND AND USE THEREOF” (VORONOI INC., priority 2021, published 2026)
pIC50: −log10 of the molar value.

Assays:
human PDGFR-β(wt) = biological target: T1, human PDGFR-β(wt) (Homo sapiens, UniProt P09619); experiment: Enzyme inhibitory activity, ADP-Glo kinase assay, PDGFR-β(wt); type: biochemical; settings: read-out: PDGFR-β (IC50 class)
T1 construct: purchased Signalchem P13-11G
Outline: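 Purified human kinases incubated with ATP and substrate 1–2 h at 25 °C in 40 mM Tris-HCl pH 7.4, 20 mM MgCl2, BSA, DTT, compound over 12 concentrations (10–0.00005645 μM final). ADP formed quantified by ADP-Glo luminescence; IC50 from inhibition versus DMSO control, reported in bins A–D.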

Ba/F3-c-KIT(D816V) = experiment: Proliferation inhibitory activity on Ba/F3 cell (CellTiter-Glo, 72 hours), c-KIT(D816V); type: cell-based; settings: Mus musculus, BaF3, read-out: Ba/F3 (nM) c-KIT (D816V) (GI50 class)
Outline: (§1)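 Cells seeded (3×10^3/well), then twelve 3-fold compound concentrations added to 0.00005-10 μM final alongside DMSO control. Plates incubated 72 h at 37 °C. CellTiter-Glo reagent mixed in for ~10 min at room temperature before reading; GI50 fitted from vehicle-normalised data.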

c-KIT D814Y = experiment: Proliferation inhibitory activity on Ba/F3 cell (CellTiter-Glo, 72 hours), c-KIT D814Y; type: cell-based; settings: Mus musculus, BaF3, c-KIT D814Y cells, read-out: Cell (nM) c-KIT D814Y (GI50 class)
Protocol: (§2) Ba/F3-TEL-PDGFRα(WT), Ba/F3-TEL-PDGFβ(WT), Ba/F3-c-KIT(D816V) (Kyinno, #KC-0138), c-KIT V560G/D816V, c-KIT D814Y were seeded at 3×10^3/100 μl/well in a clear bottom white 96-well plate. A culture solution containing compounds of 12 concentrations (0.00001-2 mM) serially diluted in 3 folds and the DMSO control group was added at 0.5 μl/well each to a final concentration of 0.00005-10 μM, and then incubated in a CO2 incubator at 37° C. for 72 hours. After 72 hours, the plate treated with the compound was taken out, CellTiter-Glo® Assay (Promega) solution was treated with 100 μl/well, followed by mixing well. After mixing well for about 10 minutes at room temperature, […] was measured using a microplate reader. The data were presented as percentages in proportion to treated cells based on the vehicle, GI50 (nM) values were calculated using GraphPad Prism 8.3.0 (GraphPad software Inc., San Diego).
(§3) The inhibitory activities of Ba/F3 expressing PDGFR-α, PDGFR-β, c-KIT(D816V), c-KIT V560G/D816V, and c-KIT D814Y measured as described above were measured and shown in Table 7 below (A: GI50≤200 nM; B: 200 nM<GI50≤500 nM; C: GI50>500 nM).

c-KIT V560G/D816V = experiment: Proliferation inhibitory activity on Ba/F3 cell (CellTiter-Glo, 72 hours), c-KIT V560G/D816V; type: cell-based; settings: Mus musculus, BaF3, c-KIT V560G/D816V cells, read-out: Cell (nM) c-KIT V560G/D816V (GI50 class)
Outline: as §1

Ba/F3-TEL-PDGFRα(WT) = experiment: Proliferation inhibitory activity on Ba/F3 cell (CellTiter-Glo, 72 hours), PDGFR-α; type: cell-based; settings: Mus musculus, BaF3, read-out: Ba/F3 (nM) Tel-PDGFRα (GI50 class)
Protocol: as §2, §3

Ba/F3-TEL-PDGFβ(WT) = experiment: Proliferation inhibitory activity on Ba/F3 cell (CellTiter-Glo, 72 hours), PDGFR-β; type: cell-based; settings: Mus musculus, BaF3, read-out: Ba/F3 (nM) Tel-PDGFRβ (GI50 class)
Protocol: as §2, §3

human PDGFR-α(wt) = biological target: T2, human PDGFR-α(wt) (Homo sapiens, UniProt P16234); experiment: Enzyme inhibitory activity, ADP-Glo kinase assay, PDGFR-α(wt); type: biochemical; settings: read-out: PDGFR-α (IC50 class)
T2 construct: purchased Signalchem P12-18G
T2 sequence (P16234 24-1089): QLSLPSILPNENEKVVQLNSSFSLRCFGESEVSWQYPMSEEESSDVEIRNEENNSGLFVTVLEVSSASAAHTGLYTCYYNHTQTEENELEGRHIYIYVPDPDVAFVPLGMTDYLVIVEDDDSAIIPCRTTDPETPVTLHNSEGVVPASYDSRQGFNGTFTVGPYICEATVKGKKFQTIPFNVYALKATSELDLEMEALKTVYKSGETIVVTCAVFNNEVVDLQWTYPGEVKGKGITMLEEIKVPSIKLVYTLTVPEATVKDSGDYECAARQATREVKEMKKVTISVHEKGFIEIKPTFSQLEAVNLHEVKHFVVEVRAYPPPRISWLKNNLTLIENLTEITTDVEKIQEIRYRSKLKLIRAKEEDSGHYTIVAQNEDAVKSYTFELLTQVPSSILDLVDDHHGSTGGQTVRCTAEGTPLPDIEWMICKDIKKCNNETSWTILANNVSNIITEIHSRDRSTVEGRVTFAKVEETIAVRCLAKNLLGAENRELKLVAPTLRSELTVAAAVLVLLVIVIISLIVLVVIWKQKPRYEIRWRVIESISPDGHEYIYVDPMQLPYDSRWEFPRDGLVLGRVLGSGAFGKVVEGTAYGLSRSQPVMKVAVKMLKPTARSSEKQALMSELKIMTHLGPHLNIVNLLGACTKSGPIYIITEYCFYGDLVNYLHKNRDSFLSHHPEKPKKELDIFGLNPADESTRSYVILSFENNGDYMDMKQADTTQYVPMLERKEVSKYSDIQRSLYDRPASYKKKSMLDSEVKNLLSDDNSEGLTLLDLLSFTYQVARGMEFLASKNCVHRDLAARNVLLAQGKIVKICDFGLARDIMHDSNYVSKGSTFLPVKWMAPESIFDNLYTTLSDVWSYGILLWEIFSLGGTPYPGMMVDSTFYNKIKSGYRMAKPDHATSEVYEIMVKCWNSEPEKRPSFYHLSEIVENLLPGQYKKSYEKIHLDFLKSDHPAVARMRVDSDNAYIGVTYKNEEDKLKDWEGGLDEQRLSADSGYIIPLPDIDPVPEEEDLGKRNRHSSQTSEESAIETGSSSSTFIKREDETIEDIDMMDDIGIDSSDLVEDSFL
Protocol: In order to evaluate the inhibitory activity of the compounds synthesized according to the above examples on PDGFR-α(wt), PDGFR-β(wt), c-KIT(wt), and c-KIT(D816V) kinases, the following method was performed. The compounds of examples were reacted with purified human PDGFR-α(wt) (Signalchem #P12-18G) enzyme, human PDGFR-β(wt) (Signalchem #P13-11G) enzyme, human c-KIT(wt) (Signalchem #K06-11BG) enzyme, human c-KIT(D816V) (Signalchem #C06-12LG) enzyme, and the enzyme inhibitory abilities were evaluated by the following method.
The reaction buffer was used as a composition of 40 mM Tris-HCl pH7.4, 20 mM MgCl2, 0.5 mg/ml BSA, 50 μM DTT, and the reactions of all the tests were carried out on the reaction buffer. The compound was diluted in 12 steps using a serial dilution method from a 10 mM DMSO stock, and the enzyme activity was measured at a final compound concentration of 10˜0.00005645 μM. During the test, the enzyme activity was confirmed using in vitro ADP-Glo™ kinase assay (Promega) after reacting with the proper concentration of human PDGFR-α(wt) enzyme, human PDGFR-β(wt), human c-KIT(wt) enzyme, and human c-KIT(D816V) enzyme with purified ATP and enzyme substrate at 25° C. for 1˜2 hours. At a ratio of 2:2:1, an enzyme-active reaction solution, an ADP-Glo reaction solution, and an enzyme-active detection solution were reacted to measure the inhibition of the enzyme's activity with luminoscence. Based on the […] of the enzyme activity of the solvent control that was not treated with the compound, the degree of enzyme activity inhibition was calculated according to the treatment concentration of each compound, and the concentration of each compound that inhibits 50% of enzyme activity was determined as IC50 (nM) value and the value was obtained by using GraphPad Prism 8.3.0 (GraphPad software Inc., San Diego) software. (A: IC50≤50 nM; B: 50 nM<IC50≤100 nM; C: 100 nM<IC50≤500 nM; D: IC50>500 nM).

various kinases = experiment: Inhibitory activity against various kinases, DiscoverX scanMAX Kinase panel, % control at 1 μM; type: binding
Protocol: The activities of the compounds according to the present disclosure on various enzymes were evaluated. Specifically, it was commissioned DiscoverX to measure enzyme selectivity for the compounds of Examples 3, 9, and 83 above, and the experiment was conducted using a panel for scanMAX™ Kinase analysis. Herein, a solution prepared by dissolving in DMSO at a concentration of 1 μM was used as the drug treated with the enzyme, and the control percentage (% control) was determined by the method of Equation 1 below, and the results are shown in Table 8 below.
Herein, when the calculated percentage value for each enzyme was less than 35%, it was determined to have inhibitory activity for the enzyme. Accordingly, among the series of enzymes tested, the enzymes showing the inhibitory activities of the compounds of the present disclosure are summarized and shown in Table 8 below along with the control percentages thereof. (©): less than 10%; ◯: 10% or more to less than 35%).

T1 sequence (P09619 33-1106): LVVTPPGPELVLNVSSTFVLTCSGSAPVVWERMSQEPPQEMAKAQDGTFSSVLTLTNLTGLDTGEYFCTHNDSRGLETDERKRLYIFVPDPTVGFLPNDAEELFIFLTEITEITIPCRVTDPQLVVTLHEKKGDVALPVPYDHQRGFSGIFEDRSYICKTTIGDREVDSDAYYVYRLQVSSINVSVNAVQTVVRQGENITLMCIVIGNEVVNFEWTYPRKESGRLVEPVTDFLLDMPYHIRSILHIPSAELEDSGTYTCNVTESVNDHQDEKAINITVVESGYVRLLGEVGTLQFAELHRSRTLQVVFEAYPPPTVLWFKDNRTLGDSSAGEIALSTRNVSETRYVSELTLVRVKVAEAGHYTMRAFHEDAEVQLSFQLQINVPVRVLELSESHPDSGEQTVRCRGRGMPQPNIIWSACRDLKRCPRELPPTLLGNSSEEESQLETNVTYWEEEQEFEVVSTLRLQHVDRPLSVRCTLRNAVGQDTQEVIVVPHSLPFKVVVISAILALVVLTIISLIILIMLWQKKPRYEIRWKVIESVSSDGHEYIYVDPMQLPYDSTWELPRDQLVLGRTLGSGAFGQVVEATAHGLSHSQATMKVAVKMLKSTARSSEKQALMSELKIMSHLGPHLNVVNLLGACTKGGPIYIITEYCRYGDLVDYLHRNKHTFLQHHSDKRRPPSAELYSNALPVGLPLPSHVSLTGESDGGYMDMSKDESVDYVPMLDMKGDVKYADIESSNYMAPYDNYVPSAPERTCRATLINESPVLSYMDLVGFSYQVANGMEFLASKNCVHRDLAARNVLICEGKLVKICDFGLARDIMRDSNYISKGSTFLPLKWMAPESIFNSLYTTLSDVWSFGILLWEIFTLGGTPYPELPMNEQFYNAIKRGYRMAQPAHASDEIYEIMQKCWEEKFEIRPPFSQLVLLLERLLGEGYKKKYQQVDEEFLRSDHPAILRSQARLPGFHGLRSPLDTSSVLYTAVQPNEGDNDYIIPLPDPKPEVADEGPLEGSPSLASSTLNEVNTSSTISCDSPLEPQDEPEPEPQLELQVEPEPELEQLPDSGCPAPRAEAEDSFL

| Structure (SMILES) | pIC50 (human PDGFR-β(wt)) | GI50 (Ba/F3-c-KIT(D816V)) | GI50 (c-KIT D814Y) | GI50 (c-KIT V560G/D816V) | further results |
| --- | --- | --- | --- | --- | --- |
| COc1cc2c(-c3ccc(NC(=O)Cc4ccc(C(F)(F)F)cc4)cc3)ncnc2cc1OCCCN1C[C@H]2C[C@@H]1CN2C [Example 31, N-(4-(6-methoxy-7-(3-((1R,4R)-5-methyl-2,5-diazabicyclo[2.2.1]heptane-2-yl)propoxy)quinazolin-4-yl)phenyl)-2-(4-(trifluoromethyl)phenyl)acetamide] | ≥ 7.30 | ≤ 200 nM | ≤ 200 nM | ≤ 200 nM | – |
| CCN1CCCC(COc2cc3c(-c4ccc(NC(=O)Cc5ccc(C(F)(F)F)cc5)cc4)ncnc3cc2OC)C1 (centres unmarked) [Example 134, N-(4-(6-((1-ethylpiperidin-3-yl)methoxy)-7-methoxyquinazolin-4-yl)phenyl)-2-(4-(trifluoromethyl)phenyl)acetamide] | – | ≤ 200 nM | ≤ 200 nM | ≤ 200 nM | – |
| COc1cc2ncnc(-c3ccc(NC(=O)Cc4ccc(C(F)(F)F)cc4)cc3)c2cc1O[C@@H]1CCOC1 [Example 125, (R)-N-(4-(7-methoxy-6-((tetrahydrofuran-3-yl)oxy)quinazolin-4-yl)phenyl)-2-(4-(trifluoromethyl)phenyl)acetamide] | – | ≤ 200 nM | > 500 nM | > 500 nM | – |
| CCN1CC[C@@H](COc2cc3ncnc(-c4ccc(NC(=O)Cc5ccc(C(F)(F)F)cc5)cc4)c3cc2OC)C1 [Example 40, (R)-N-(4-(7-((1-ethylpyrrolidin-3-yl)methoxy)-6-methoxyquinazolin-4-yl)phenyl)-2-(4-(trifluoromethyl)phenyl)acetamide] | ≥ 7.30 | ≤ 200 nM | ≤ 200 nM | ≤ 200 nM | – |
| COc1cc2ncnc(-c3ccc(NC(=O)Cc4ccc(C(F)(F)F)cc4)cc3)c2cc1OCCCN1CCN(C)CC1 [Example 126, N-(4-(7-methoxy-6-(3-(4-methylpiperazin-1-yl)propoxy)quinazolin-4-yl)phenyl)-2-(4-(trifluoromethyl)phenyl)acetamide] | – | ≤ 200 nM | ≤ 200 nM | ≤ 200 nM | – |
| COc1cc2ncnc(-c3ccc(NC(=O)Cc4ccc(C(F)(F)F)cc4)cc3)c2cc1OCC1CCCNC1 (centres unmarked) [Example 133, N-(4-(7-methoxy-6-(piperidin-3-ylmethoxy)quinazolin-4-yl)phenyl)-2-(4-(trifluoromethyl)phenyl)acetamide] | – | ≤ 200 nM | > 500 nM | 200 to 500 nM | – |
| CCN1CCC(Oc2cc3c(-c4ccc(NC(=O)Cc5ccc(C(F)(F)F)cc5)cc4)ncnc3cc2OC)C1 (centres unmarked) [Example 145, N-(4-(6-((1-ethylpyrrolidin-3-yl)oxy)-7-methoxyquinazolin-4-yl)phenyl)-2-(4-(trifluoromethyl)phenyl)acetamide] | – | ≤ 200 nM | ≤ 200 nM | 200 to 500 nM | – |
| COc1cc2ncnc(-c3ccc(NC(=O)Cc4ccc(C(F)(F)F)cc4)cc3)c2cc1OC1CNC1 [Example 138, N-(4-(6-(azetidin-3-yloxy)-7-methoxyquinazolin-4-yl)phenyl)-2-(4-(trifluoromethyl)phenyl)acetamide] | – | ≤ 200 nM | ≤ 200 nM | 200 to 500 nM | – |
| COc1cc2c(-c3ccc(NC(=O)Cc4ccc(C(F)(F)F)cc4)cc3)ncnc2cc1OCCn1cccn1 [Example 30, N-(4-(7-(2-(1H-pyrazol-1-yl)ethoxy)-6-methoxyquinazolin-4-yl)phenyl)-2-(4-(trifluoromethyl)phenyl)acetamide] | ≥ 7.30 | ≤ 200 nM | ≤ 200 nM | ≤ 200 nM | – |
| COc1cc2c(-c3ccc(NC(=O)Cc4ccc(C(F)(F)F)cc4)cc3)ncnc2cc1OCCCN1CC(N(C)C)C1 [Example 22, N-(4-(7-(3-(3-(dimethylamino)azetidine-1-yl)propoxy)-6-methoxyquinazolin-4-yl)phenyl)-2-(4-(trifluoromethyl)phenyl)acetamide] | – | ≤ 200 nM | ≤ 200 nM | ≤ 200 nM | – |
| COCCN1CCC(COc2cc3ncnc(-c4ccc(NC(=O)Cc5ccc(C(F)(F)F)cc5)cc4)c3cc2OC)CC1 [Example 43, N-(4-(6-methoxy-7-((1-(2-methoxyethyl)piperidin-4-yl)methoxy)quinazolin-4-yl)phenyl)-2-(4-(trifluoromethyl)phenyl)acetamide] | ≥ 7.30 | ≤ 200 nM | ≤ 200 nM | ≤ 200 nM | – |
| CCN1CC(Oc2cc3c(-c4ccc(NC(=O)Cc5ccc(C(F)(F)F)cc5)cc4)ncnc3cc2OC)C1 [Example 144, N-(4-(6-((1-ethylazetidin-3-yl)oxy)-7-methoxyquinazolin-4-yl)phenyl)-2-(4-(trifluoromethyl)phenyl)acetamide] | – | ≤ 200 nM | ≤ 200 nM | 200 to 500 nM | – |
| COc1cc2c(-c3ccc(NC(=O)Cc4ccc(C#N)cc4)cc3)ncnc2cc1OCCCN1CCN(C)CC1 [Example 83, 2-(4-cyanophenyl)-N-(4-(6-methoxy-7-(3-(4-methylpiperazin-1-yl)propoxy)quinazolin-4-yl)phenyl)acetamide] | ≥ 7.30 | ≤ 200 nM | – | ≤ 200 nM | GI50 (Ba/F3-TEL-PDGFRα(WT)): ≤ 200 nM; GI50 (Ba/F3-TEL-PDGFβ(WT)): ≤ 200 nM; pIC50 (human PDGFR-α(wt)): ≥ 7.30; control percentage (% control), KIT (various kinases; KIT): ⊚; control percentage (% control), KIT (A829P) (various kinases; KIT (A829P)): ⊚; control percentage (% control), KIT (D816H) (various kinases; KIT (D816H)): ⊚; control percentage (% control), KIT (D816V) (various kinases; KIT (D816V)): ⊚; control percentage (% control), KIT (L576P) (various kinases; KIT (L576P)): ⊚; control percentage (% control), KIT (V559D) (various kinases; KIT (V559D)): ⊚; control percentage (% control), KIT (V559D, T670I) (various kinases; KIT (V559D, T670I)): ◯ (◯: 10% or more to less than 35%); control percentage (% control), KIT (V559D, V654A) (various kinases; KIT (V559D, V654A)): ◯ (◯: 10% or more to less than 35%); control percentage (% control), PDGFRA (various kinases; PDGFRA): ⊚; control percentage (% control), PDGFRB (various kinases; PDGFRB): ⊚ |
